Activity calls are given as the source filed them. The rule behind the calls is not given here.
How the values were obtained:
[1] = R848-induced IL-6 production in human whole blood; type: tissue-based
[2] = molecular target: Serine/threonine-protein kinase B-raf (Homo sapiens) (UniProt P15056); experiment: B-Raf Kinase panel; settings: Compound concentration 1.0 uM
[3] = molecular target: Serine/threonine-protein kinase BRSK1 (Homo sapiens) (UniProt Q8TDC3); experiment: BrSK1 Kinase panel; settings: Compound concentration 1.0 uM
[4] = molecular target: Cyclin-dependent kinase 2/cyclin A (Homo sapiens) (UniProt P24941+P20248+P78396); experiment: CDK2/cyclinA Kinase panel; type: protein-complex assay; settings: Compound concentration 1.0 uM
[5] = molecular target: Cyclin-dependent kinase 5/CDK5 activator 1 (Homo sapiens) (UniProt Q00535+Q15078); experiment: CDK5/p25 Kinase panel; type: protein-complex assay; settings: Compound concentration 1.0 uM
[6] = molecular target: Casein kinase I isoform gamma-2 (Homo sapiens) (UniProt P78368); experiment: CK1_gamma2 Kinase panel; settings: Compound concentration 1.0 uM
[7] = molecular target: Dual specificity protein kinase CLK2 (Homo sapiens) (UniProt P49760); experiment: CLK2 Kinase panel; settings: Compound concentration 1.0 uM
[8] = molecular target: Dual specificity protein kinase CLK4 (Homo sapiens) (UniProt Q9HAZ1); experiment: CLK4 Kinase panel; settings: Compound concentration 1.0 uM
[9] = molecular target: Tyrosine-protein kinase CSK (Homo sapiens) (UniProt P41240); experiment: CSK Kinase panel; settings: Compound concentration 1.0 uM
[10] = molecular target: Death-associated protein kinase 1 (Homo sapiens) (UniProt P53355); experiment: DAPK1 Kinase panel; settings: Compound concentration 1.0 uM
[11] = molecular target: Epithelial discoidin domain-containing receptor 1 (Homo sapiens) (UniProt Q08345); experiment: DDR1 Kinase panel; settings: Compound concentration 1.0 uM
[12] = molecular target: Dual specificity tyrosine-phosphorylation-regulated kinase 1A (Homo sapiens) (UniProt Q13627); experiment: DYRK1A Kinase panel; settings: Compound concentration 1.0 uM
[13] = molecular target: Ephrin type-A receptor 7 (Homo sapiens) (UniProt Q15375); experiment: EphA7 Kinase panel; settings: Compound concentration 1.0 uM
[14] = molecular target: Ephrin type-A receptor 8 (Homo sapiens) (UniProt P29322); experiment: EphA8 Kinase panel; settings: Compound concentration 1.0 uM
[15] = molecular target: Ephrin type-B receptor 3 (Homo sapiens) (UniProt P54753); experiment: EphB3 Kinase panel; settings: Compound concentration 1.0 uM
[16] = molecular target: Focal adhesion kinase 1 (Homo sapiens) (UniProt Q05397); experiment: FAK Kinase panel; settings: Compound concentration 1.0 uM
[17] = molecular target: Fibroblast growth factor receptor 3 (Homo sapiens) (UniProt P22607); experiment: FGFR3 Kinase panel; settings: Compound concentration 1.0 uM
[18] = molecular target: Glycogen synthase kinase-3 beta (Homo sapiens) (UniProt P49841); experiment: GSK3_beta Kinase panel; settings: Compound concentration 1.0 uM
[19] = molecular target: Megakaryocyte-associated tyrosine-protein kinase (Homo sapiens) (UniProt P42679); experiment: Hyl Kinase panel; settings: Compound concentration 1.0 uM
[20] = molecular target: Mitogen-activated protein kinase 10 (Homo sapiens) (UniProt P53779); experiment: JNK3 Kinase panel; settings: Compound concentration 1.0 uM
[21] = molecular target: Dual specificity mitogen-activated protein kinase kinase 1 (Homo sapiens) (UniProt Q02750); experiment: MEK1 Kinase panel; settings: Compound concentration 1.0 uM
[22] = molecular target: Maternal embryonic leucine zipper kinase (Homo sapiens) (UniProt Q14680); experiment: MELK Kinase panel; settings: Compound concentration 1.0 uM
[23] = molecular target: Tyrosine-protein kinase Mer (Homo sapiens) (UniProt Q12866); experiment: Mer Kinase panel; settings: Compound concentration 1.0 uM
[24] = molecular target: Serine/threonine-protein kinase Nek1 (Homo sapiens) (UniProt Q96PY6); experiment: NEK1 Kinase panel; settings: Compound concentration 1.0 uM
[25] = molecular target: Serine/threonine-protein kinase Nek4 (Homo sapiens) (UniProt P51957); experiment: NEK4 Kinase panel; settings: Compound concentration 1.0 uM
[26] = molecular target: Serine/threonine-protein kinase NLK (Homo sapiens) (UniProt Q9UBE8); experiment: NLK Kinase panel; settings: Compound concentration 1.0 uM
[27] = molecular target: Serine/threonine-protein kinase PAK 6 (Homo sapiens) (UniProt Q9NQU5); experiment: PAK6 Kinase panel; settings: Compound concentration 1.0 uM
[28] = molecular target: Platelet-derived growth factor receptor alpha (Homo sapiens) (UniProt P16234); experiment: PDGFR_alpha Kinase panel; settings: Compound concentration 1.0 uM
[29] = molecular target: Phosphatidylinositol 4,5-bisphosphate 3-kinase catalytic subunit gamma isoform (Homo sapiens) (UniProt P48736); experiment: PI3KG Kinase panel; settings: Compound concentration 1.0 uM
[30] = molecular target: Protein kinase C alpha type (Homo sapiens) (UniProt P17252); experiment: PKC_alpha Kinase panel; settings: Compound concentration 1.0 uM
[31] = molecular target: Serine/threonine-protein kinase D1 (Homo sapiens) (UniProt Q15139); experiment: PKD1 Kinase panel; settings: Compound concentration 1.0 uM
[32] = molecular target: MAP kinase-activated protein kinase 5 (Homo sapiens) (UniProt Q8IW41); experiment: PRAK Kinase panel; settings: Compound concentration 1.0 uM
[33] = molecular target: 5'-AMP-activated protein kinase catalytic subunit alpha-1 (Homo sapiens) (UniProt Q13131); experiment: PRKAA1 Kinase panel; settings: Compound concentration 1.0 uM
[34] = molecular target: cAMP-dependent protein kinase catalytic subunit PRKX (Homo sapiens) (UniProt P51817); experiment: PrKX Kinase panel; settings: Compound concentration 1.0 uM
[35] = molecular target: Rho-associated protein kinase 1 (Homo sapiens) (UniProt Q13464); experiment: ROCK1 Kinase panel; settings: Compound concentration 1.0 uM
[36] = molecular target: Serine/threonine-protein kinase Sgk3 (Homo sapiens) (UniProt Q96BR1); experiment: SGK3 Kinase panel; settings: Compound concentration 1.0 uM
[37] = molecular target: Tyrosine-protein kinase SYK (Homo sapiens) (UniProt P43405); experiment: Syk Kinase panel; settings: Compound concentration 1.0 uM
[38] = (§1) TAK1-TAB1 Kinase panel; parameters: species or system Homo sapiens
Homo sapiens [39] = organism: Homo sapiens; experiment: as §1; settings: Compound concentration 1.0 uM
Homo sapiens [40] = organism: Homo sapiens; experiment: (§2) TAO1 Kinase panel; settings: Compound concentration 1.0 uM
[41] = molecular target: Serine/threonine-protein kinase TAO1 (Homo sapiens) (UniProt Q7L7X3); experiment: as §2; settings: Compound concentration 1.0 uM
[42] = molecular target: TGF-beta receptor type-1 (Homo sapiens) (UniProt P36897); experiment: TGFBR1 Kinase panel; settings: Compound concentration 1.0 uM
[43] = molecular target: Angiopoietin-1 receptor (Homo sapiens) (UniProt Q02763); experiment: Tie2 Kinase panel; settings: Compound concentration 1.0 uM
[44] = molecular target: T1, High affinity nerve growth factor receptor (Homo sapiens, UniProt P04629); experiment: TrkA Kinase panel
[45] = molecular target: Serine/threonine-protein kinase mTOR (Homo sapiens) (UniProt P42345); experiment: mTOR Kinase panel; settings: Compound concentration 1.0 uM
[46] = molecular target: T1, High affinity nerve growth factor receptor; experiment: NanoBRET assay (NTRK1v2, SGC Frankfurt)
Target sequence in this assay (P04629 whole entry): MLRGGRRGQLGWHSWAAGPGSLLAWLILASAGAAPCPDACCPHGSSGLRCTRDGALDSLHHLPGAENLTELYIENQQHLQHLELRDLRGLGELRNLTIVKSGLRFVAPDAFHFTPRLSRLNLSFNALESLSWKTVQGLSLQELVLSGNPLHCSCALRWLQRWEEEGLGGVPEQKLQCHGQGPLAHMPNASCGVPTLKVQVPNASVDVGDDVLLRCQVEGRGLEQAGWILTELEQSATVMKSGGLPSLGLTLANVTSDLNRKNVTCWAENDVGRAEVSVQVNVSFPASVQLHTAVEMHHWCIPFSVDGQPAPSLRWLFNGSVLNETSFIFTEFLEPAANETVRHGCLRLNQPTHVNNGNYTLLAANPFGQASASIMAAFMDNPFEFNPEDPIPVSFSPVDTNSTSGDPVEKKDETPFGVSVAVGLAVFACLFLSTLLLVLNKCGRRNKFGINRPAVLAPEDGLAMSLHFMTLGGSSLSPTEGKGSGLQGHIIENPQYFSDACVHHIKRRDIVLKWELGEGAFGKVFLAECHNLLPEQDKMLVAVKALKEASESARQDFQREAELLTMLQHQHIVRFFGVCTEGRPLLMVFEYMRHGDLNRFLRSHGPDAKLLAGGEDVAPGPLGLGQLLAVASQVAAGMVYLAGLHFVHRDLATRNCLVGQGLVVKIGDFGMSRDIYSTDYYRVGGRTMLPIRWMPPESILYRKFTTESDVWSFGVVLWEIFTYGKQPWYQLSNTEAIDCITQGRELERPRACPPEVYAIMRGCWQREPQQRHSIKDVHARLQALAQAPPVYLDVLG

[47] = molecular target: 5-hydroxytryptamine receptor 1B (Homo sapiens) (UniProt P28222); settings: Compound concentration 10.0 uM
[48] = molecular target: 5-hydroxytryptamine receptor 1D (Homo sapiens) (UniProt P28221); settings: Compound concentration 10.0 uM
[49] = molecular target: 5-hydroxytryptamine receptor 1E (Homo sapiens) (UniProt P28566); settings: Compound concentration 10.0 uM
[50] = molecular target: 5-hydroxytryptamine receptor 3A (Homo sapiens) (UniProt P46098); settings: Compound concentration 10.0 uM
[51] = molecular target: 5-hydroxytryptamine receptor 6 (Homo sapiens) (UniProt P50406); settings: Compound concentration 10.0 uM
[52] = molecular target: Sodium-dependent dopamine transporter (Homo sapiens) (UniProt Q01959); settings: Compound concentration 10.0 uM
[53] = molecular target: Mu-type opioid receptor (Homo sapiens) (UniProt P35372); settings: Compound concentration 10.0 uM
[54] = molecular target: Delta-type opioid receptor (Homo sapiens) (UniProt P41143); settings: Compound concentration 10.0 uM
[55] = molecular target: Kappa-type opioid receptor (Homo sapiens) (UniProt P41145); settings: Compound concentration 10.0 uM
[56] = molecular target: Beta-2 adrenergic receptor (Homo sapiens) (UniProt P07550); settings: Compound concentration 10.0 uM

Sequence of Serine/threonine-protein kinase B-raf (Homo sapiens) (P15056 whole entry): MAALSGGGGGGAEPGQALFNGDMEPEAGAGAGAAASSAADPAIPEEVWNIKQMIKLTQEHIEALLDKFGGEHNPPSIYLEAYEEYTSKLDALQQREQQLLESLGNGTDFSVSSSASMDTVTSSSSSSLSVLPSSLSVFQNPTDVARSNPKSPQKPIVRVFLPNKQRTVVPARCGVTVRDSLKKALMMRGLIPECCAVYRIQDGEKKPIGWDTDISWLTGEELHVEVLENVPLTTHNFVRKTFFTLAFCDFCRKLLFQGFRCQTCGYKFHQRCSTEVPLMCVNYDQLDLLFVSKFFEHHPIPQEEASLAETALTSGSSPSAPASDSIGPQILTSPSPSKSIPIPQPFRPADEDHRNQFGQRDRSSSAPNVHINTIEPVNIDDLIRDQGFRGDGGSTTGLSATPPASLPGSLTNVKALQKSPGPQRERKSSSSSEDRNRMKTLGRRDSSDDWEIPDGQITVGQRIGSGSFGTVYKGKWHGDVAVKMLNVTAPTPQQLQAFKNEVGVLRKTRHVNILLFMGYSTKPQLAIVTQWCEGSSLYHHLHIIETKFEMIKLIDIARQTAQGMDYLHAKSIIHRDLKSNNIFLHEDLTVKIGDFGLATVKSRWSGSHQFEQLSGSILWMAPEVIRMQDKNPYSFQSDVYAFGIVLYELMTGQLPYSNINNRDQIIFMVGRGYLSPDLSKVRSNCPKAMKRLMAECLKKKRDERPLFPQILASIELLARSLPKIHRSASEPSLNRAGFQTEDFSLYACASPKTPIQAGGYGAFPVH
Sequence of Sodium-dependent dopamine transporter (Homo sapiens) (Q01959 whole entry): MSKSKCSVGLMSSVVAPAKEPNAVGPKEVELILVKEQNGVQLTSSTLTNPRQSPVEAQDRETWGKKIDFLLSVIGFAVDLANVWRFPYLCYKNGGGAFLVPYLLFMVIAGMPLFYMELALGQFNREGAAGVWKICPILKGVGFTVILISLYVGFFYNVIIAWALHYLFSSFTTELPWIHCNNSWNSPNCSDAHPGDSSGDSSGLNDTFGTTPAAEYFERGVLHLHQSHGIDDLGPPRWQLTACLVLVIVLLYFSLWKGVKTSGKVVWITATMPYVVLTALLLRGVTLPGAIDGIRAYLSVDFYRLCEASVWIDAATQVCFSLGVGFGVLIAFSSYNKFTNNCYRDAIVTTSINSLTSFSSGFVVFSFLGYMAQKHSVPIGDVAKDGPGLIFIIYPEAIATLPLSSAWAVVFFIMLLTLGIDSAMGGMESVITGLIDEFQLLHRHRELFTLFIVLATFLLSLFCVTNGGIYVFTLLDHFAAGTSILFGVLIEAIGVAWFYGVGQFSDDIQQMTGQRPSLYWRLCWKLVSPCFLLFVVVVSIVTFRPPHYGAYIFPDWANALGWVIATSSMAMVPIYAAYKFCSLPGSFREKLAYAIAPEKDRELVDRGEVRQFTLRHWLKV
Sequence of Ephrin type-A receptor 8 (Homo sapiens) (P29322 whole entry): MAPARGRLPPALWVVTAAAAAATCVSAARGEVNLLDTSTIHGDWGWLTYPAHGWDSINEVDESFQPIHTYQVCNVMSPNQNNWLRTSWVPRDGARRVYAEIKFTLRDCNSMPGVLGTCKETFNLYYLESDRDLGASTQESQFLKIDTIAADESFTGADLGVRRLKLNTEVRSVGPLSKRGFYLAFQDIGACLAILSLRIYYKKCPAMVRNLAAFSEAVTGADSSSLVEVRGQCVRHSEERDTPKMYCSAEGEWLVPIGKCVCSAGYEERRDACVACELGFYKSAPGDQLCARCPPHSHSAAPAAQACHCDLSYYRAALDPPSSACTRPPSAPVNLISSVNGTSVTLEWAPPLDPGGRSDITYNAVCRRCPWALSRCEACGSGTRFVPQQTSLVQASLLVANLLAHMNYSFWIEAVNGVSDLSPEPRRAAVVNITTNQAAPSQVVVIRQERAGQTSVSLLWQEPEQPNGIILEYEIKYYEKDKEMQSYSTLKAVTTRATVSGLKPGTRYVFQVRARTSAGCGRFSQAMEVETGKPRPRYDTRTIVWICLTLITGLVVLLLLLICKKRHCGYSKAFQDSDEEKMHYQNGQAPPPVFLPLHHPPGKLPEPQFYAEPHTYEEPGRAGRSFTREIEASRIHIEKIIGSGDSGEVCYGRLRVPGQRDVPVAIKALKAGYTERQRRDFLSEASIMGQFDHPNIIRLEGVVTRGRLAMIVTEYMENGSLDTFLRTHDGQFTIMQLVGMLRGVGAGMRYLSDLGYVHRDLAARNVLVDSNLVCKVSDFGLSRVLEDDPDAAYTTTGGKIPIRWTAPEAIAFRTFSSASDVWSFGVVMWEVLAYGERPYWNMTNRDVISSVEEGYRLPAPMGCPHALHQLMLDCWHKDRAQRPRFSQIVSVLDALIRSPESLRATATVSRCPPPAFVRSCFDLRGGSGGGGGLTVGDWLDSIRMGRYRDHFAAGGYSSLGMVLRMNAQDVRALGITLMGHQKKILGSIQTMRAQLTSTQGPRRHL
Sequence of Tyrosine-protein kinase Mer (Homo sapiens) (Q12866 whole entry): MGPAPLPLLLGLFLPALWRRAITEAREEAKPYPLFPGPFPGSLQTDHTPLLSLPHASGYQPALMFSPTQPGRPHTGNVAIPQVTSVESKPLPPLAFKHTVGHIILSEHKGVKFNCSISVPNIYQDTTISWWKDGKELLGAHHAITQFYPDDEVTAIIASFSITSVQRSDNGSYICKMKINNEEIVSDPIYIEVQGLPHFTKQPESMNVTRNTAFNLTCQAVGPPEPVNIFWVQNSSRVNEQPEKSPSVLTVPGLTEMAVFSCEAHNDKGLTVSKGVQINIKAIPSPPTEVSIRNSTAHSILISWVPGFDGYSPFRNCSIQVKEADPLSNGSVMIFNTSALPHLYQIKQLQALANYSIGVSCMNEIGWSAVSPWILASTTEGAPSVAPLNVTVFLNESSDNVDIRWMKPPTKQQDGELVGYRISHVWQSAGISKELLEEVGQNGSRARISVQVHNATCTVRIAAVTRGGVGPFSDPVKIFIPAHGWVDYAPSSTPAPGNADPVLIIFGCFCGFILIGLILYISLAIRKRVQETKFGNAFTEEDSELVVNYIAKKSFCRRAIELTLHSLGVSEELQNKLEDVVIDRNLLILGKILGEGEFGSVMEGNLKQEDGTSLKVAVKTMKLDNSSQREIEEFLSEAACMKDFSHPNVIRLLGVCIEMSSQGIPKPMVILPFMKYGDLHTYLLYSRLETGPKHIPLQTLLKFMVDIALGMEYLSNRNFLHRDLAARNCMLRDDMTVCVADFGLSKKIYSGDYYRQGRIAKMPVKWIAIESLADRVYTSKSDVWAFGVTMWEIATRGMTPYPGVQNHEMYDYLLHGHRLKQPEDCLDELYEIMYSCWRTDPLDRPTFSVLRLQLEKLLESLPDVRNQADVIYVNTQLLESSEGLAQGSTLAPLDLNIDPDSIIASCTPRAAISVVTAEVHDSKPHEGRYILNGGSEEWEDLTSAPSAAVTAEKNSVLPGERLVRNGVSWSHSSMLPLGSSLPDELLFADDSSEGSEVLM
Sequence of Serine/threonine-protein kinase D1 (Homo sapiens) (Q15139 whole entry): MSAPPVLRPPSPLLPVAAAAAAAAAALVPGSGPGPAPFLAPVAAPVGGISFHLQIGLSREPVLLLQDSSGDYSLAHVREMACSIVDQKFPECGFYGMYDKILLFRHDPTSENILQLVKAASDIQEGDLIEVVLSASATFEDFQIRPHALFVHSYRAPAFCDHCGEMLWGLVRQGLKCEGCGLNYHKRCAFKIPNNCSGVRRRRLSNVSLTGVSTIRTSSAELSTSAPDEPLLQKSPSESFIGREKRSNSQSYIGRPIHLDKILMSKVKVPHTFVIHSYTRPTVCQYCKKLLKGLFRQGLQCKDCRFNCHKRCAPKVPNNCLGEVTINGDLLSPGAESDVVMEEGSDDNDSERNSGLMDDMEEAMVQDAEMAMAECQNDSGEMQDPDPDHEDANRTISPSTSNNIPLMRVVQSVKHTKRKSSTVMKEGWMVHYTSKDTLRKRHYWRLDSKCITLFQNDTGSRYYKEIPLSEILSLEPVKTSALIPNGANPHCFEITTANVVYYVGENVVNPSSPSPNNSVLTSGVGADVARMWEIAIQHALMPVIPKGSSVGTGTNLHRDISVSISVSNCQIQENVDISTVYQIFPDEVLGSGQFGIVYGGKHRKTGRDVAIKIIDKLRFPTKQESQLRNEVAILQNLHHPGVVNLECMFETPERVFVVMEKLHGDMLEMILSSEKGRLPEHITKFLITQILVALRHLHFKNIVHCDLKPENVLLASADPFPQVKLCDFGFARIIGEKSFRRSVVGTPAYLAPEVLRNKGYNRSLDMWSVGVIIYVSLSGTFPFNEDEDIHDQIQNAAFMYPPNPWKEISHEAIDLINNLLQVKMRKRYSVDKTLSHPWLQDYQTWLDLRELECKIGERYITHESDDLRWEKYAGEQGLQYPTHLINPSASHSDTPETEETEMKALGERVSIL

## CC(C)(O)[C@H](F)CN1Cc2cc(NC(=O)c3cnn4cccnc34)c(N3CCOCC3)cc2C1=O
[1]
  IC50: 190 nM (active)
[2]
  inhibition: -0.5%
[3]
  inhibition: 3%
[4]
  inhibition: 3%
[5]
  inhibition: 9%
[6]
  inhibition: 5%
[7]
  inhibition: 20.3%
[8]
  inhibition: 47.8%
[9]
  inhibition: 22%
[10]
  inhibition: 5.5%
[11]
  inhibition: -2%
[12]
  inhibition: 2%
[13]
  inhibition: 20%
[14]
  inhibition: 13%
[15]
  inhibition: -0%
[16]
  inhibition: 19.5%
[17]
  inhibition: 1.5%
[18]
  inhibition: 7.8%
[19]
  inhibition: -4%
[20]
  inhibition: 10.5%
[21]
  inhibition: 20.5%
[22]
  inhibition: 12.5%
[23]
  inhibition: 28%
[24]
  inhibition: 11%
[25]
  inhibition: 10%
[26]
  inhibition: 7%
[27]
  inhibition: 7%
[28]
  inhibition: 40.5%
[29]
  inhibition: 46.5%
[30]
  inhibition: 11%
[31]
  inhibition: 7.5%
[32]
  inhibition: -3.5%
[33]
  inhibition: 5.5%
[34]
  inhibition: -2.5%
[35]
  inhibition: 5%
[36]
  inhibition: -0.5%
[37]
  inhibition: 9%
[38]
  IC50: 966 nM
Homo sapiens [39]
  inhibition: 74.5%
Homo sapiens [40]
  inhibition: 2%
[41]
  inhibition: 2%
[42]
  inhibition: 0.5%
[43]
  inhibition: 6.5%
[44]
  IC50: 313 nM
[44]; Compound concentration 1.0 uM
  inhibition: 71%
[45]
  inhibition: -0%
[46]
  EC50: 11000 nM (not active)
[47]
  inhibition: 33%
[48]
  inhibition: 33.2%
[49]
  inhibition: 1.48%
[50]
  inhibition: -0.18%
[51]
  inhibition: 7.46%
[52]
  inhibition: 20%
[53]
  inhibition: 6.2%
[54]
  inhibition: -7.48%
[55]
  inhibition: -0.13%
[56]
  inhibition: 3.53%

Reference: ChEMBL document CHEMBL4879554, “Data for DCP probe GNE-2256” (2021)
